# Like-named read-outs stand apart in the source and are kept apart here.
# Key:
# [1] = target: T1, GST fusion human ERK2 protein (Homo sapiens, UniProt P28482); assay: ERK2 enzyme assay (2); type: biochemical; conditions: read-out: ERK2 enzyme inhibitory activity (2)
# T1 construct: purchased Carna Biosciences, Inc; host or cells: E. coli expression system
# In short: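 GST-tagged human ERK2 expressed in E. coli (1.25 nmol/L) was preincubated with compound for 15 min at room temperature in pH 7.5 Hepes buffer with MgCl2, DTT and Brij35. Reaction with FL-Peptide 8 (final 4.25 μmol/L) and ATP (final 1 mmol/L) ran 120 min at 25 °C; EDTA stopped it, and phosphorylated peptide was quantified by mobility-shift separation to derive IC50.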
# human PI3Kα protein = target: T2, human PI3Kα protein (Homo sapiens, UniProt P42336); assay: PI3Kα enzyme assay (ADP-Glo); type: biochemical; conditions: read-out: PI3Kα enzyme inhibitory activity
# T2 construct: purchased Carna Biosciences, Inc; host or cells: baculovirus expression system
# T2 sequence (P42336 whole entry): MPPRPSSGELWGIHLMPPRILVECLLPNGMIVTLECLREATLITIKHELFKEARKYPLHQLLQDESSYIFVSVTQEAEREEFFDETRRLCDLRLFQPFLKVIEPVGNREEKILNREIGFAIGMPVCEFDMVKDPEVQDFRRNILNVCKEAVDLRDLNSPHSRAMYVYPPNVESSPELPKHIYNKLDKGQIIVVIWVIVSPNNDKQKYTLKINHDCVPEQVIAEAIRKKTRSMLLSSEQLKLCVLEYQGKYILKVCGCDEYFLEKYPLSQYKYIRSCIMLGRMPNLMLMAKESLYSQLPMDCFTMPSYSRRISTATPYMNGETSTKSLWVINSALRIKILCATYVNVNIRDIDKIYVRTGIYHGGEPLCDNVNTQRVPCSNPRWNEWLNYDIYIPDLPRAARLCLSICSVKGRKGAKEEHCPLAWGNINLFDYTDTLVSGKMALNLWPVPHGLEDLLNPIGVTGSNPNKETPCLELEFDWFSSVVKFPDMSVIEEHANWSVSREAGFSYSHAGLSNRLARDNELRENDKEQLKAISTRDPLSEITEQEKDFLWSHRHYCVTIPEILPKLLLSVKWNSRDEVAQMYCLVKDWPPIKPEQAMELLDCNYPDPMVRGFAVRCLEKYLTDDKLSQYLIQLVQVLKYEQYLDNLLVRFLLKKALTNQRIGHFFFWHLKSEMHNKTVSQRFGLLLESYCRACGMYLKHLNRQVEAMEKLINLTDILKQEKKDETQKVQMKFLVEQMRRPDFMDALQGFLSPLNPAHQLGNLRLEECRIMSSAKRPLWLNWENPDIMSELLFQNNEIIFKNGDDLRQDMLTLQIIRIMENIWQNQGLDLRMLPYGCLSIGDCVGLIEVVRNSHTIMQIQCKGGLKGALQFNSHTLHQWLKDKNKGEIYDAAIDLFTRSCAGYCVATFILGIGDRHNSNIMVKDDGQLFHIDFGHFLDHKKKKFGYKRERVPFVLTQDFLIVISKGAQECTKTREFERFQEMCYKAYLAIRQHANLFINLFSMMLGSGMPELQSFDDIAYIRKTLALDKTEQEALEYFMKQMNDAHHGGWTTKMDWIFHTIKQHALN
# T2 sequence (P27986 whole entry partner): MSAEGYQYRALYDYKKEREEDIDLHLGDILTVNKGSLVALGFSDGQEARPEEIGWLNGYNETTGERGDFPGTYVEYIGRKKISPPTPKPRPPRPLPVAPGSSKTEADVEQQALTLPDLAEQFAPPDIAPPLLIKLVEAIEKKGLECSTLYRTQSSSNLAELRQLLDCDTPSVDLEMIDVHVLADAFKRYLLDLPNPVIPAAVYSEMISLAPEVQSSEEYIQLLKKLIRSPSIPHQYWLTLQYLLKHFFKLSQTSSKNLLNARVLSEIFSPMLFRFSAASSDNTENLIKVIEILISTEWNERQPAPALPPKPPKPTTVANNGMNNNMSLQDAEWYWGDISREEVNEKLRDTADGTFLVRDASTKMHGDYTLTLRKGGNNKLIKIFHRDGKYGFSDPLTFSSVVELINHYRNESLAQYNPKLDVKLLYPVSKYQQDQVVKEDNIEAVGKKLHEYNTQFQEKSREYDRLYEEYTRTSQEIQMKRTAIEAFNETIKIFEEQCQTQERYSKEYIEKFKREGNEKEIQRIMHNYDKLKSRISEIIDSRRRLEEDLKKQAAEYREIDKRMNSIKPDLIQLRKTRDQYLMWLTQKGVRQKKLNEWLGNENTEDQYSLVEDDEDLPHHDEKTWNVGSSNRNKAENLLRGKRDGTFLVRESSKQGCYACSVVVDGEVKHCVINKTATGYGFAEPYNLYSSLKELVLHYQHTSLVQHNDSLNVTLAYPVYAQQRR
# In short: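 Biotinylated human PI3Kα (baculovirus-expressed, 4.5 nmol/L) pre-incubated 15 min with compound in Tris-HCl pH 7.5, MgCl2, BSA; reaction 60 min at 25° C with 50 μmol/L PIP2 and 100 μmol/L ATP final. ADP quantified by ADP-Glo luminescence; IC50 calculated.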
# T1 sequence (P28482 whole entry, the tested form may be a part): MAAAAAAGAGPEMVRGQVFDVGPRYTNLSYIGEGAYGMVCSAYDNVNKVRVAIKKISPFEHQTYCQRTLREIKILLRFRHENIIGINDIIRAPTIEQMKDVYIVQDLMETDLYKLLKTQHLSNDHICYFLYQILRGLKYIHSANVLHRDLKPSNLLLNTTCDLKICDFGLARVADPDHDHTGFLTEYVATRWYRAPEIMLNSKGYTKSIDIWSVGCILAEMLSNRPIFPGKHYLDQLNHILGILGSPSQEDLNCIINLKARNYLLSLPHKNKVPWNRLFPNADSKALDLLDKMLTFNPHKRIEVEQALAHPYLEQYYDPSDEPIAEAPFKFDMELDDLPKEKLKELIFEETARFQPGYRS
Structure (SMILES),IC50 ([1]; ERK2 enzyme assay (2)) [nM],IC50 (human PI3Kα protein) [nM],IC50 [1] [nM]
"CC(=O)N1CCC(n2cc(-c3cnc4ccc(Nc5cc(C(C)C)cnn5)nc4c3)cn2)CC1 [Example 0478, 1-(4-(4-(6-((5-Isopropylpyridazin-3-yl)amino)-1,5-naphthyridin-3-yl)-1H-pyrazol-1-yl)piperidin-1-yl)ethanone]",< 1000,< 1000,–
CC(C)c1cnnc(Nc2ccc3ncc(-c4cnn(Cc5ccc(N)nc5)c4)cc3n2)c1 [Example 0464],< 1000,< 1000,–
"CC(C)c1cnnc(Nc2ccc3ncc(-c4cnn(CCOC5CN(S(C)(=O)=O)C5)c4)cc3n2)c1 [Example 0755, N-(5-isopropylpyridazin-3-yl)-7-(1-(2-((1-(methylsulfonyl)azetidin-3-yl)oxy)ethyl)-1H-pyrazol-4-yl)-1,5-naphthyridine-2-amine]",< 1000,< 1000,–
CC(C)c1cnnc(Nc2ccc3ncc(C4=CCOCC4)cc3n2)c1 [Example 0580],< 1000,< 1000,–
"c1cncc(Cn2cc(-c3cnc4ccc(Nc5cc(C6CC6)cnn5)nc4c3)cn2)c1 [Example 0463, N-(5-cyclopropylpyridazin-3-yl)-7-(1-(pyridin-3-ylmethyl)-1H-pyrazol-4-yl)-1,5-naphthyridine-2-amine]",< 1000,< 1000,–
"CC(C)OC1CN(CCCn2cc(-c3cnc4ccc(Nc5cc(C(C)C)cnn5)nc4c3)cn2)C1 [Example 0710, 7-(1-(3-(3-Isopropoxyazetidin-1-yl)propyl)-1H-pyrazol-4-yl)-N-(5-isopropylpyridazin-3-yl)-1,5-naphthyridine-2-amine]",< 1000,< 1000,–
"CC(=O)NCCc1cn(-c2cnc3ccc(Nc4cc(C(C)C)cnn4)nc3c2)cn1 [Example 0504, N-(2-(1-(6-((5-isopropylpyridazin-3-yl)amino)-1,5-naphthyridin-3-yl)-1H-imidazol-4-yl)ethyl)acetamide]",< 1000,< 1000,–
Cc1nn(C)cc1-c1cnc2ccc(Nc3cc(C4CC4)cnn3)nc2c1 [Example 0565],< 1000,< 1000,–
CC(C)c1cnnc(Nc2ccc3ncc(-c4cnn(CCCN5CCCCC5C(F)(F)F)c4)cc3n2)c1 (stereo not shown) [Example 0672],< 1000,< 1000,–
CC(C)c1cnnc(Nc2ccc3ncc(-c4cnn(C(C)C)c4)cc3n2)c1 [Example 0442],< 1000,< 1000,–
CC(C)c1cnnc(Nc2ccc3ncc(-c4cnn(CCCN5CCN(C(=O)N(C)C)CC5)c4)cc3n2)c1 [Example 0433],< 1000,< 1000,–
CC(C)c1cnnc(Nc2ccc3ncc(-c4cnn(CCCN5CC(F)(F)C5)c4)cc3n2)c1 [Example 0692],< 1000,< 1000,–
CC(C)c1cnnc(Nc2ccc3ncc(-c4ccc(=O)n(CCCN5CCOCC5)c4)cc3n2)c1 [Example 0618],< 1000,< 1000,–
CC(=O)Nc1ccc(-c2nn(C)cc2-c2cnc3ccc(Nc4cc(C(C)C)cnn4)nc3c2)cn1 [Example 0459],< 1000,< 1000,–
"CC(C)c1cnnc(Nc2ccc3ncc(-c4cnn(CCC5OCCCO5)c4)cc3n2)c1 [Example 0641, 7-(1-(2-(1,3-Dioxan-2-yl)ethyl)-1H-pyrazol-4-yl)-N-(5-isopropylpyridazin-3-yl)-1,5-naphthyridine-2-amine]",< 1000,< 1000,–
Cc1ccncc1-c1nn(C)cc1-c1cnc2ccc(Nc3cc(C(C)C)cnn3)nc2c1 [Example 0736],1000 to 10000,< 1000,–
CCN(CC)C(=O)N1CCC(Cn2cc(-c3cnc4ccc(Nc5cc(C(C)C)cnn5)nc4c3)cn2)CC1 [Example 0531],< 1000,< 1000,–
CC(C)c1cnnc(Nc2ccc3ncc(-c4cnn(C)c4-c4cccnc4)cc3n2)c1 [Example 0575],< 1000,< 1000,–
"CC(C)c1cnnc(Nc2ccc3ncc(-n4cnc(CO)c4)cc3n2)c1 [Example 0497, (1-(6-((5-isopropylpyridazin-3-yl)amino)-1,5-naphthyridin-3-yl)-1H-imidazol-4-yl)methanol]",< 1000,1000 to 10000,–
CC(C)c1cnnc(Nc2ccc3ncc(-c4cnn(CCCN5CC(OCc6ccccc6)C5)c4)cc3n2)c1 [Example 0680],< 1000,< 1000,–

# Results, then the compound that gave them:
IC50 ([1]; ERK2 enzyme assay (2)) [nM],IC50 (human PI3Kα protein) [nM],IC50 [1] [nM],Structure (SMILES)
1000 to 10000,< 1000,–,CC(C)c1cnnc(Nc2ccc3ncc(NC4CCCC4)cc3n2)c1 [Example 0878]
< 1000,< 1000,–,"Cc1nn(C)cc1-c1cnc2ccc(Nc3cc(C4(C)CC4)cnn3)nc2c1 [Example 0885, 7-(1,3-Dimethyl-1H-pyrazol-4-yl)-N-(5-(1-methylcyclopropyl)pyridazin-3-yl)-1,5-naphthyridine-2-amine]"
< 1000,< 1000,–,CC(C)c1cnnc(Nc2ccc3ncc(-c4cn(C)nc4NCc4ccncc4)cc3n2)c1 [Example 0835]
< 1000,< 1000,–,"CC(C)c1cnnc(Nc2ccc3ncc(-c4cn(C)nc4Cc4cccnc4)cc3n2)c1 [Example 0824, N-(5-isopropylpyridazin-3-yl)-7-(1-methyl-3-(pyridin-3-ylmethyl)-1H-pyrazol-4-yl)-1,5-naphthyridine-2-amine]"
–,< 1000,< 1000,"CC(C)c1cnnc(Nc2ccc3ncc(-c4cnn(C)c4)c(-c4ccncc4)c3n2)c1 [Example 0953, N-(5-isopropylpyridazin-3-yl)-7-(1-methyl-1H-pyrazol-4-yl)-8-(pyridin-4-yl)-1,5-naphthyridine-2-amine]"
–,< 1000,< 1000,"CC(C)c1cnnc(Nc2ccc3ncc(C4=CCN(S(C)(=O)=O)C4)cc3n2)c1 [Example 0908, N-(5-Isopropylpyridazin-3-yl)-7-(1-(methylsulfonyl)-2,5-dihydro-1H-pyrrol-3-yl)-1,5-naphthyridine-2-amine]"
–,< 1000,< 1000,"CCOc1c(-c2cnn(C)c2)cnc2ccc(Nc3cc(C(C)C)cnn3)nc12 [Example 0951, 8-Ethoxy-N-(5-isopropylpyridazin-3-yl)-7-(1-methyl-1H-pyrazol-4-yl)-1,5-naphthyridine-2-amine]"
< 1000,< 1000,–,CC(C)c1cnnc(Nc2ccc3ncc(N4CCOC[C@@H]4C)cc3n2)c1 [Example 0764]
< 1000,1000 to 10000,–,CC(C)c1cnnc(Nc2ccc3ncc(N4CCC(F)(F)CC4)cc3n2)c1 [Example 0858]
1000 to 10000,< 1000,–,CC(C)c1cnnc(Nc2ccc3ncc(-c4cn(C)nc4-c4ccc(CN(C)C)cc4)cc3n2)c1 [Example 0768]
< 1000,< 1000,–,CC(C)c1cnnc(Nc2ccc3ncc(-c4cn(C)nc4/C=C/c4cccnc4)cc3n2)c1 [Example 0807]
–,1000 to 10000,< 1000,COCc1cnnc(Nc2ccc3ncc(-c4cnn(C)c4)cc3n2)c1 [Example 0922]
< 1000,< 1000,–,CC(C)c1cnnc(Nc2ccc3ncc(N4CC5(COC5)C4)cc3n2)c1 [Example 0855]
1000 to 10000,1000 to 10000,–,CC(C)c1cnnc(Nc2ccc3ncc(N4CC(OCC(F)(F)F)C4)cc3n2)c1 [Example 0865]
< 1000,< 1000,–,"CC(C)c1cnnc(Nc2ccc3ncc(-c4cn(C)nc4NC4CCCCC4)cc3n2)c1 [Example 0830, 7-(3-(cyclohexylamino)-1-methyl-1H-pyrazol-4-yl)-N-(5-isopropylpyridazin-3-yl)-1,5-naphthyridine-2-amine]"

# — patent US9783536B2, “Nitrogen-containing heterocyclic compound or salt thereof” (FUJIFILM Corporation, priority 2013, dated 2017)
